# Results as given in patent publication US8633242B2, “Benzylidene indanones and processes for preparation and use thereof” (Council of Scientific and Industrial Research, priority 2011, dated 2014).
# Key:
# [1] = tested on: HCT (Colon); assay: Sulphorhodamine B cytotoxicity assay, HCT; assay type: cell-based, human; set-up: key to Human cancer cell lines IC50, HCT (Colon): Inactive: inactive, if IC50 > 100 μM; details: for IC50 / Human cancer cell lines IC50, HCT (Colon): SRB assay, 48 hours incubation; for IC50: read-out: Human cancer cell lines IC50, HCT (Colon)
# Experimental: (§1) The benzylidene analogues were evaluated by Sulphorhodamine B Assay as per reported method [Skehan et al., J. Natl. Cancer Inst. 1990, 82, 1107]. The human cancer cell lines procured from National Cancer institute, Frederick, U.S.A. were used in present study. Cells were grown in tissue culture flasks in complete growth medium (RPMI-1640 medium with 2 mM glutamine, pH 7.4 supplemented with 10% fetal bovine serum, 100 μg/ml streptomycin and 100 units/ml penicillin) in a carbon dioxide incubator (37° C., 5% CO2, 90% RH). The cells at subconfluent stage were harvested from the flask by treatment with trypsin (0.05% in PBS (pH 7.4) containing 0.02% EDTA). Cells with viability of more than 98%, as determined by trypan blue exclusion, were used for determination of cytotoxicity. The cell suspension required concentration of cells was prepared in complete growth medium. Stock solution of 2×10^−2 M of compounds were prepared in DMSO and further dilution was carried out complete growth medium containing 50 μg/ml of gentamycin to obtained working test solution of required concentration. In vitro cytotoxicity against various human cancer cell lines was determined using 96-well cell culture plates. The 100 μl of cell suspension was added to each well of the 96-well cell culture plates. The cells were allowed to grow in CO2 incubator (37° C., 5% CO2, 90% RH) for 24 hours. The test materials in complete growth medium (100 μl) were added after 24 hours incubation to the wells containing cell suspension. The plates were further incubated for 48 hours (37° C. in an atmosphere of 5% CO2 and 90% relative humidity) in a carbon dioxide incubator after addition of test material and then the cell growth was stopped by gently layering trichloroacetic acid (50% TCA, 50 μl) on top of the medium in all the wells. The plates were incubated at 4° C. for one hour to fix the cells attached to the bottom of the wells. The liquid of all the wells was gently pipetted out and discarded. The plates were washed five times with distilled water to remove TCA, growth medium low molecular weight metabolites, serum proteins etc. and air-dried. Cell growth was measured by staining with sulforhodamine B dye. The adsorbed dye was dissolved in Tris-HCl Buffer (100 μl/well, 0.01M, pH 10.4) and plates were gently stirred for 10 minutes on a mechanical stirrer. The optical density (OD) was recorded on ELISA reader at 540 nm. 5-Fluorouracil, Paclitaxel (Taxol), Mitomycin-c and Adriamycin were used as positive controls.
# [2] = tested on: THP-1 (Leukemia); assay: Sulphorhodamine B cytotoxicity assay, THP-1; assay type: cell-based, human; set-up: key to Human cancer cell lines IC50, THP-1 (Leukemia): Inactive: inactive, if IC50 > 100 μM; details: for IC50: read-out: Human cancer cell lines IC50, THP-1 (Leukemia)
# Experimental: as §1
# [3] = tested on: HeLa (Cervix); assay: Sulphorhodamine B cytotoxicity assay, HeLa; assay type: cell-based, human; set-up: key to Human cancer cell lines IC50, HeLa (Cervix): Inactive: inactive, if IC50 > 100 μM; details: for IC50 / Human cancer cell lines IC50, HeLa (Cervix): SRB assay, 48 hours incubation; for IC50: read-out: Human cancer cell lines IC50, HeLa (Cervix)
# Experimental: as §1
# [4] = tested on: MCF-7 (Breast cancer); assay: Sulphorhodamine B cytotoxicity assay, MCF-7; assay type: cell-based, human; set-up: key to Human cancer cell lines IC50, MCF-7 (Breast cancer): Inactive: inactive, if IC50 > 100 μM; details: for IC50: read-out: Human cancer cell lines IC50, MCF-7 (Breast cancer)
# Experimental: as §1
# [5] = tested on: tubulin protein; assay: In-vitro tubulin polymerisation inhibition assay; assay type: biochemical; set-up: key to Tubulin polymerisation inhibition IC50: Inactive: inactive, if IC50 > 10 μM; details: for IC50: read-out: Tubulin polymerisation inhibition IC50; for IC50 / Tubulin polymerisation inhibition IC50: tubulin 3 mg/mL, 37° C., 340 nm, 1 h
# Experimental: The tubulin polymerization experiment was performed using ‘assay kit’ (Cytoskeleton USA) following manufacturer's protocol based on the procedure described by of Shelanski et al. (1973) and Lee et al. (1977). Briefly, tubulin protein (3 mg/mL) in tubulin polymerization buffer (80 mM PIPES, pH 6.9, 2 mM MgCl2, 0.5 mM EGTA, 1 mM GTP and 15% glycerol) was placed in pre-warmed 96-well microtiter plates at 37° C. in the presence of test compounds with variable concentrations. All samples were mixed well and polymerization was monitored kinetically at 340 nm every min for 1 h using a Spectramax plate reader. Podophyllotoxin and etoposide were used as positive controls and DMSO as negative control. The IC50 value was determined from dose-dependent analysis and is defined as the concentration that inhibits the rate of polymerization by 50%.
# Podophyllotoxin and etoposide, standard tubulin polymerisation inhibitors were used as positive controls.
# [6] = tested on: A549 (Lung); assay: Sulphorhodamine B cytotoxicity assay, A549; assay type: cell-based, human; set-up: key to Human cancer cell lines IC50, A549 (Lung): Inactive: inactive, if IC50 > 100 μM; details: for IC50 / Human cancer cell lines IC50, A549 (Lung): SRB assay, 48 hours incubation; for IC50: read-out: Human cancer cell lines IC50, A549 (Lung)
# Experimental: as §1
# [7] = tested on: PC-3 (prostate); assay: Sulphorhodamine B cytotoxicity assay, PC-3; assay type: cell-based, human; set-up: key to Human cancer cell lines IC50, PC-3 (prostate): Inactive: inactive, if IC50 > 100 μM; details: for Human cancer cell lines IC50, PC-3 (prostate) / IC50: SRB assay, 48 hours incubation; for IC50: Homo sapiens, read-out: Human cancer cell lines IC50, PC-3 (prostate)
# Experimental: as §1
# [8] = tested on: DU-145 (prostate); assay: Sulphorhodamine B cytotoxicity assay, DU-145; assay type: cell-based, human; set-up: key to Human cancer cell lines IC50, DU-145 (prostate): Inactive: inactive, if IC50 > 100 μM; details: SRB assay, 48 hours incubation; for IC50: Homo sapiens, DU-145, read-out: Human cancer cell lines IC50, DU-145 (prostate)
# Experimental: as §1
# [9] = Homo sapiens, MCF7, SRB assay, 48 hours incubation
# [10] = Homo sapiens, THP-1, SRB assay, 48 hours incubation
melting point [°C],Tubulin polymerisation inhibition IC50 [5],Structure (SMILES),"IC50 [4, 9] [µM]",IC50 [5] [µM],IC50 ([1]; Homo sapiens) [µM],"IC50 ([6]; Homo sapiens, A549) [µM]","Human cancer cell lines IC50, PC-3 (prostate) [7]","IC50 [2, 10] [µM]","Human cancer cell lines IC50, DU-145 (prostate) [8]","IC50 ([3]; Homo sapiens, HeLa) [µM]","Human cancer cell lines IC50, HeLa (Cervix) [3]",further results
,,"O=c1[nH]cc(F)c(=O)[nH]1 [5-Fluorouracil, reference compound]",,,,,,,,,,"inhibition at 20 µM ([1]; Homo sapiens, positive control at 20 μM): 65%; inhibition at 20 µM ([2]; Homo sapiens, THP-1, positive control at 20 μM): 74%; inhibition at 20 µM ([3]; Homo sapiens, HeLa, positive control at 20 μM): 70%"
,,"COc1cccc2c1C(=O)c1c(O)c3c(c(O)c1C2=O)C[C@@](O)(C(=O)CO)C[C@@H]3O[C@H]1C[C@H](N)[C@H](O)[C@H](C)O1 [Adriamycin, reference compound]",,,,,,,,,,"inhibition at 1 µM ([4]; Homo sapiens, MCF7, positive control at 1 μM): 65%"
118 to 120,,"COc1cc(/C=C2\C(=O)c3cc(OC)c(OC)c(OC)c3C2c2cc(OC)c(OC)c(OC)c2)cc(OC)c1OC (centres unmarked) [Compound 9, 2-(3″,4″,5″-trimethoxybenzylidene), 3-(3′,4′,5′-trimethoxyphenyl)-4,5,6-trimethoxy indan-1-one]",38.9,4.62,39.7,67.6,Inactive,64.9,Inactive,82.3,,"inhibition of tubulin polymerisation, in words [5]: strong inhibition"
190 to 192,Inactive,"COc1cc(C2/C(=C/c3ccc([N+](=O)[O-])cc3)C(=O)c3cc(OC)c(OC)c(OC)c32)cc(OC)c1OC (centres unmarked) [Compound 11, 2-(4″-nitrobenzlidene),3-(3′,4′,5′-trimethoxyphenyl)-4,5,6-trimethoxy indan-1-one]",88.1,,97.3,,Inactive,89.5,Inactive,,Inactive,"Human cancer cell lines IC50, A549 (Lung) [6]: Inactive"
139 to 141,Inactive,"COc1cc(C2C(=Cc3ccccc3)C(=O)c3cc(OC)c(OC)c(OC)c32)cc(OC)c1OC (centres unmarked) [Compound 14, 2-benzylidene, 3-(3′,4′,5′-trimethoxyphenyl)-4,5,6-trimethoxy indan-1-one]",42.5,,14.9,47.5,,32.7,Inactive,14.1,,IC50 [7]: 50.6 µM
191 to 192,Inactive,"COc1ccccc1/C=C1\C(=O)c2cc(OC)c(OC)c(OC)c2C1c1cc(OC)c(OC)c(OC)c1 (centres unmarked) [Compound 19, 2-(2″-methoxybenzylidene), 3-(3′,4′,5′-trimethoxyphenyl)-4,5,6-trimethoxy indan-1-one]",,,,62.6,Inactive,29.3,,,Inactive,"Human cancer cell lines IC50, HCT (Colon) [1]: Inactive; IC50 [8]: 21.5 µM"
,,"COc1cc([C@@H]2c3cc4c(cc3[C@@H](O[C@@H]3O[C@@H]5CO[C@@H](C)O[C@H]5[C@H](O)[C@H]3O)[C@H]3COC(=O)[C@H]23)OCO4)cc(OC)c1O [Etoposide, reference compound]",1.5,[…],6.5,5.4,Inactive,< 1,Inactive,< 1,,
,,"CO[C@@]12[C@H](COC(N)=O)C3=C(C(=O)C(C)=C(N)C3=O)N1C[C@@H]1N[C@@H]12 [Mitomycin-c, reference compound]",,,,,,,,,,"% Inhibition, PC-3 (Prostate) ([7]; positive control at 1 μM): 61%"
,,"CC(=O)O[C@H]1C(=O)[C@@]2(C)[C@H]([C@H](OC(=O)c3ccccc3)[C@]3(O)C[C@H](OC(=O)[C@H](O)[C@@H](NC(=O)c4ccccc4)c4ccccc4)C(C)=C1C3(C)C)[C@]1(OC(C)=O)CO[C@@H]1C[C@@H]2O [Paclitaxel, reference compound]",,,,,,,,,,"inhibition at 1 µM ([6]; Homo sapiens, A549, positive control at 1 μM): 69%"
,,"COc1cc([C@@H]2c3cc4c(cc3[C@H](O)[C@H]3COC(=O)[C@H]23)OCO4)cc(OC)c1OC [Podophyllotoxin, reference compound]",< 1,[…],< 1,< 1,,< 1,,< 1,,IC50 [7]: 91.5 µM; IC50 [8]: 91.5 µM

Structure (SMILES),melting point [°C],Tubulin polymerisation inhibition IC50 [5],"IC50 [4, 9] [µM]",IC50 [5] [µM],IC50 ([1]; Homo sapiens) [µM],"IC50 ([6]; Homo sapiens, A549) [µM]","Human cancer cell lines IC50, PC-3 (prostate) [7]","IC50 [2, 10] [µM]","Human cancer cell lines IC50, DU-145 (prostate) [8]","IC50 ([3]; Homo sapiens, HeLa) [µM]","Human cancer cell lines IC50, HeLa (Cervix) [3]",further results
"COc1ccc(/C=C2\C(=O)c3cc(OC)c(OC)c(OC)c3C2c2cc(OC)c(OC)c(OC)c2)cc1 (centres unmarked) [Compound 10, 2-(4″-methoxybenzylidene),3(3′,4′,5′-trimethoxyphenyl)-4,5,6-trimethoxy indan-1-one]",188 to 190,,3.18,4.67,18.6,13.4,,0.88,,21,,"anticancer activity against human breast cancer cells (MCF-7), in words [4]: potent anticancer activity; inhibition of tubulin polymerisation, in words [5]: strong inhibition; IC50 [7]: 65.7 µM; activity against leukemia cell lines (THP), in words [2]: potent activity; IC50 [8]: 44.9 µM"
"COc1cc(C2/C(=C/c3cccc([N+](=O)[O-])c3)C(=O)c3cc(OC)c(OC)c(OC)c32)cc(OC)c1OC (centres unmarked) [Compound 12, 2-(3″-nitrobenzylidene),3-(3′,4′,5′-trimethoxyphenyl)-4,5,6-trimethoxy indan-1-one]",215 to 217,Inactive,,,,,Inactive,,Inactive,,Inactive,"Human cancer cell lines IC50, MCF-7 (Breast cancer) ([4]; SRB assay, 48 hours incubation): Inactive; Human cancer cell lines IC50, HCT (Colon) [1]: Inactive; Human cancer cell lines IC50, A549 (Lung) [6]: Inactive; Human cancer cell lines IC50, THP-1 (Leukemia) ([2]; SRB assay, 48 hours incubation): Inactive"
"COc1ccc(/C=C2\C(=O)c3cc(OC)c(OC)c(OC)c3C2c2cc(OC)c(OC)c(OC)c2)cc1OC (centres unmarked) [Compound 13, 2-(3″,4″-dimethoxybenzylidene), 3-(3′,4′,5′-trimethoxyphenyl)-4,5,6-trimethoxy indan-1-one]",179 to 180,,80.8,0.62,,,Inactive,62,Inactive,,Inactive,"inhibition of tubulin polymerisation, in words [5]: strong inhibition; Human cancer cell lines IC50, HCT (Colon) [1]: Inactive; Human cancer cell lines IC50, A549 (Lung) [6]: Inactive"
